Data from patent publication US20140112886A1, “DINUCLEOTIDE COMPOUNDS FOR HCV INFECTION” (IDENIX PHARMACEUTICALS, INC., priority 2012, published 2014).

What was measured:
HCV genotype 1b replicon = assay: microbe, parasite or virus in culture; type: cell-based; details: Hepatitis C virus, 72 h, read-out: HCV Replicon EC50
[1] = Cytotoxicity evaluation, CellTiter-Blue Cell Viability Assay; details: human, Zluc cells (HCV replicon cells)
in vitro = details: human

SMILES	EC50 (HCV genotype 1b replicon) [µM]	CC50 at 72 h [1] [µM]	CC50 (in vitro) [µM]
CCOc1nc(N)nc2c1ncn2[C@@H]1O[C@@H]2COP(=O)(NCCNP3(=O)OC[C@H]4O[C@@H](n5cnc6c(OCC)nc(N)nc65)[C@](C)(F)[C@@H]4O3)O[C@H]2[C@@]1(C)F (mixture of isomers) [Compound 3]	1 to 10	> 50	–
CCOc1nc(N)nc2c1ncn2[C@@H]1O[C@H](COP(=O)(Oc2ccccc2)N2CCN(P(=O)(OC[C@H]3O[C@@H](n4cnc5c(OC)nc(N)nc54)[C@](C)(O)[C@@H]3O)Oc3ccccc3)CC2)[C@@H](O)[C@@]1(C)F (stereo partly shown) [Compound 4]	> 10	–	> 50
CCOc1nc(N)nc2c1ncn2[C@@H]1O[C@H](COP(=O)(NCCNP(=O)(OC[C@H]2O[C@@H](n3cnc4c(OC)nc(N)nc43)[C@](C)(O)[C@@H]2O)Oc2ccccc2)Oc2ccccc2)[C@@H](O)[C@@]1(C)F (stereo partly shown) [Compound 5]	> 10	–	> 50
COc1nc(N)nc2c1ncn2[C@@H]1O[C@H](COP(=O)(NCCNP(=O)(OC[C@H]2O[C@@H](n3cnc4c(OC)nc(N)nc43)[C@](C)(O)[C@@H]2O)Oc2ccccc2)Oc2ccccc2)[C@@H](O)[C@@]1(C)O (stereo partly shown) [Compound 6]	> 10	–	> 50
CCOc1nc(N)nc2c1ncn2[C@@H]1OC(COP2(=O)OCC3(CO2)COP(=O)(OCC2O[C@@H](n4cnc5c(OCC)nc(N)nc54)[C@](C)(F)[C@@H]2O)OC3)[C@@H](O)[C@@]1(C)F (stereo partly shown) [Compound 7]	> 10	–	> 50
CCOc1nc(N)nc2c1ncn2[C@@H]1O[C@@H]2COP(=O)(Oc3cccc(OP4(=O)OC[C@H]5O[C@@H](n6ccc(=O)[nH]c6=O)[C@](C)(F)[C@@H]5O4)c3)O[C@H]2[C@@]1(C)F (stereo partly shown) [Compound 8]	< 0.25	–	> 50
CCOc1nc(N)nc2c1ncn2[C@@H]1O[C@@H]2COP(=O)(Oc3cccc(OP4(=O)OC[C@H]5O[C@@H](n6cnc7c(OCC)nc(N)nc76)[C@](C)(F)[C@@H]5O4)c3)O[C@H]2[C@@]1(C)O (stereo partly shown) [Compound 9]	< 0.25	–	> 50
CCOc1nc(N)nc2c1ncn2[C@@H]1O[C@@H]2COP(=O)(Oc3cccc(OP4(=O)OC[C@H]5O[C@@H](n6ccc(OC)nc6=O)[C@](C)(F)[C@@H]5O4)c3)O[C@H]2[C@@]1(C)F (stereo partly shown) [Compound 10]	< 0.25	–	> 50
CCOc1nc(N)nc2c1ncn2[C@@H]1O[C@@H]2COP(=O)(Oc3cccc(OP4(=O)OC[C@H]5O[C@@H](n6cnc7c(OCC)nc(N)nc76)[C@](C)(O)[C@@H]5O4)c3)O[C@H]2[C@@]1(C)O (stereo partly shown) [Compound 12]	0.25 to 1	–	> 50
CCOc1nc(N)nc2c1ncn2[C@@H]1O[C@@H]2COP(=O)(OC3CCC(OP4(=O)OC[C@H]5O[C@@H](n6cnc7c(OCC)nc(N)nc76)[C@](C)(F)[C@@H]5O4)CC3)O[C@H]2[C@@]1(C)F (stereo partly shown) [Compound 13]	1 to 10	–	> 50
CCOc1nc(N)nc2c1ncn2[C@@H]1O[C@@H]2COP(=O)(NCCCCCCNP3(=O)OC[C@H]4O[C@@H](n5cnc6c(OCC)nc(N)nc65)[C@](C)(F)[C@@H]4O3)O[C@H]2[C@@]1(C)F (stereo partly shown) [Compound 14]	1 to 10	> 50	–
